From patent publication US3932619A, “Metabolite A-27106 and processes for its preparation and use” (Eli Lilly and Company, priority 1974, dated 1976)
Where a name gives a salt, the structure may show the parent alone.

Tests used:
mice = assay: Acute intraperitoneal toxicity in groups of six mice; type: in vivo; details: for mice died: six mice
Method: In tests when metabolite A-27106 sodium salt was administered intraperitoneally to groups of six mice each:
In similar tests, when monensin sodium salt was administered intraperitoneally to groups of six mice each: […]

[1] = Electrometric titration (pKa); type: physicochemical; details: pH 8; electrometric titration in water, initial pH of 8
Source text: The acid form of metabolite A-27106 is a white amorphous solid, having a molecular weight of about 832.

Eimeria tenella = assay: Control of coccidiosis in chicks inoculated with Eimeria tenella, drug in feed; type: in vivo; details: for Avg. Wt. Gain/Bird: 7 days after inoculation; for Lesion Scores: number of birds at score 0 / Lesion Scores: number of birds at score 1 / Lesion Scores: number of birds at score 2 / Lesion Scores: number of birds at score 3 / Lesion Scores: number of birds at score 4: of 15 birds
Method: A group of 75 one-week-old, healthy, incubator and battery-reared, cross-bred male chicks, of a heavy broiler type was used. The birds were divided into five groups of 15 birds having three replicates of five-bird subgroups each. Each subgroup was reared out of contact with the other subgroups. A first group was held as an untreated healthy control under favorable conditions. A second group was treated as the first group, but was inoculated with coccidiosis by oral administration of a dose containing 10^5 sporulated oocysts of Eimeria tenella. The third, fourth and fifth groups were treated as the second group except that, 24 hours before the said inoculation, their feed was modified by addition of metabolite A-27106 sodium salt in concentrations of 100, 150, and 200 parts per million (ppm), respectively.
Seven days after inoculation, the birds were weighed, sacrificed and examined for evidence of coccidial lesions. Coccidial involvement was expressed on an arbitrary scale of zero to four. Lesion scores indicate the number of birds at each level. Zero indicates no evidence of coccidiosis. One designates the least coccidial involvement that can be seen. Two indicates moderate involvement with little or no hemorrhage and no severe tissue damage. Three indicates hemorrhage, swelling of the caeca, and extensive tissue involvement. Four indicates hemorrhage, a caecal core of clotted blood and debrided epithelial cells. Birds scoring […] or less usually recover if not further infected with coccidia.

rumen fluid = assay: Volatile fatty acid production in incubated diluted rumen fluid; set-up: species or system steer; details: 16 hours, 38°C.
Source text: Rumen fluid is obtained from a steer with a surgically-installed fistula opening into the rumen. The steer is maintained on a high-grain ration, the composition of which follows:
A sample of rumen fluid is strained through four layers of cheesecloth, and the filtrate is collected. The particulate matter retained by the cheesecloth is resuspended in enough physiological buffer to return it to the original volume of the rumen fluid, and this suspension is strained again. The buffer used has the following composition:
The two filtrates are combined and allowed to stand until particulate matter separates to the top. The clear layer is separated, diluted with the same buffer (1:1) and then adjusted to pH 7.0.
The diluted rumen fluid (10 ml.) is placed in a 25-ml. flask with 40 mg. of the above-described feed, an additional 5 mg. of soybean protein, and the compound to be tested. Four replicate flasks are used per treatment. Two sets of four control flasks each are also employed. A zero-time control and an incubated 16-hour control are used. All test flasks are incubated for 16 hours at 38°C. After incubation the pH is measured, and 25 percent metaphosphoric acid (2 ml.) is added to each flask. The samples are allowed to settle, and the supernatant is analyzed by gas chromatography for propionate, acetate, and butyrate compounds.
Test-compound results are statistically compared with the control results.

[2] = Solubility in organic solvents; type: physicochemical
birds = assay: Other studies: palatability and toxicity in birds; type: in vivo
coccidiosis = assay: Other studies with A-27106 sodium salt alone and combined with monensin in the diet; type: in vivo, birds
Method: Numerous other studies were carried out with metabolite A-27106 sodium salt, both alone and in combination with monensin.

[3] = medicated birds with high lesion scores
[4] = 0.2 mcg./ml. diluted rumen fluid

For CCC1(C2OC(C3OC(O)(COC4OC(CO)C(O)C(O)C4O)C(C)CC3C)CC2C)CCC(C2(C)CCC3(CC(O)C(C)C(C(C)C(OC)C(C)C(=O)O)O3)O2)O1 (stereo not drawn) [Metabolite A-27106], which “toxicity compared with monensin” value (mice; mice) is on record?
The value was “less toxic than monensin”.

What about the pKa [1] of the same compound?
The pKa was 7.2.

Which results are given for CCC1(C2OC(C3OC(O)(COC4OC(CO)C(O)C(O)C4O)C(C)CC3C)CC2C)CCC(C2(C)CCC3(CC(O)C(C)C(C(C)C(OC)C(C)C(=O)O)O3)O2)O1 (stereo not drawn) [metabolite A-27106 sodium salt]?
mice died (mice; 50 mg./kg.): one out of six died; mice died (mice; 100 mg./kg.): three out of six died; Avg. Wt. Gain/Bird (Eimeria tenella; 100 ppm in the diet): 157 Grams; Lesion Scores: number of birds at score 0 (Eimeria tenella; 100 ppm in the diet): 4; Lesion Scores: number of birds at score 1 (Eimeria tenella; 100 ppm in the diet): 1; Lesion Scores: number of birds at score 2 (Eimeria tenella; 100 ppm in the diet): 0; Lesion Scores: number of birds at score 3 (Eimeria tenella; 100 ppm in the diet): 3; Lesion Scores: number of birds at score 4 (Eimeria tenella; 100 ppm in the diet): 7; Avg. Wt. Gain/Bird (Eimeria tenella; 150 ppm in the diet): 150 Grams; Lesion Scores: number of birds at score 0 (Eimeria tenella; 150 ppm in the diet): 3; Lesion Scores: number of birds at score 1 (Eimeria tenella; 150 ppm in the diet): 3; Lesion Scores: number of birds at score 2 (Eimeria tenella; 150 ppm in the diet): 1; Lesion Scores: number of birds at score 3 (Eimeria tenella; 150 ppm in the diet): 1; Lesion Scores: number of birds at score 4 (Eimeria tenella; 150 ppm in the diet): 7; Avg. Wt. Gain/Bird (Eimeria tenella; 200 ppm in the diet): 166 Grams; Lesion Scores: number of birds at score 0 (Eimeria tenella; 200 ppm in the diet): 5; Lesion Scores: number of birds at score 1 (Eimeria tenella; 200 ppm in the diet): 0; Lesion Scores: number of birds at score 2 (Eimeria tenella; 200 ppm in the diet): 0; Lesion Scores: number of birds at score 3 (Eimeria tenella; 200 ppm in the diet): 0; Lesion Scores: number of birds at score 4 (Eimeria tenella; 200 ppm in the diet): 10; condition of birds (Eimeria tenella; [3]): appeared to be in good condition; fecal blood (Eimeria tenella; [3]): scanty or absent; Butyrate, ratio of concentration in treated to control flasks (rumen fluid; [4]): 0.91; Propionate, ratio of concentration in treated to control flasks (rumen fluid; [4]): 1.02; Total VFA, ratio of concentration in treated to control flasks (rumen fluid; [4]): 1.07; Butyrate, ratio of concentration in treated to control flasks (rumen fluid; 1 mcg./ml. diluted rumen fluid): 0.96; Propionate, ratio of concentration in treated to control flasks (rumen fluid; 1 mcg./ml. diluted rumen fluid): 1.42; Total VFA, ratio of concentration in treated to control flasks (rumen fluid; 1 mcg./ml. diluted rumen fluid): 0.98; Butyrate, ratio of concentration in treated to control flasks (rumen fluid; 5 mcg./ml. diluted rumen fluid): 0.73; Propionate, ratio of concentration in treated to control flasks (rumen fluid; 5 mcg./ml. diluted rumen fluid): 2.15; Total VFA, ratio of concentration in treated to control flasks (rumen fluid; 5 mcg./ml. diluted rumen fluid): 1.03; solubility ([2]; highly polar solvents): readily soluble; solubility ([2]; liquid lower alkanes): relatively insoluble; solubility ([2]; lower aliphatic alcohols): soluble; solubility ([2]; nonpolar solvents): insoluble; solubility ([2]; phenol, diethyl ether and acetone): partially soluble; solubility ([2]; solvents of intermediate polarity): varies in solubility; toxicity compared with monensin (birds): less toxic than was monensin; weight gains (coccidiosis; 0.04 percent versus 0.01 percent in diet): no greater weight gains at 0.04 percent than at 0.01%; toxicity (coccidiosis; higher rate (0.04 percent)): no evidence of toxicity; caecal lesions (coccidiosis; higher rate (0.04 percent) versus 0.01 percent): fewer caecal lesions

What does the source list for CC[C@@]1([C@@H]2O[C@@H]([C@H]3O[C@@](O)(CO)[C@H](C)C[C@@H]3C)C[C@@H]2C)CC[C@H]([C@]2(C)CC[C@]3(C[C@H](O)[C@@H](C)[C@@H]([C@@H](C)[C@@H](OC)[C@H](C)C(=O)O)O3)O2)O1 [monensin sodium salt, reference compound]?
mice died (mice; 10 mg./kg.): one out of six died; mice died (mice; 20 mg./kg.): three out of six died
